Data published in patent publication US12209079B2 (GENERAL INCORPORATED ASSOCIATION PHARMA VALLEY PROJECT …, priority 2017, dated 2025).
Where a name gives a salt, the structure may show the parent alone.

What was measured:
IDO in A431 cells = target: T1, IDO in A431 cells (Homo sapiens, UniProt P14902); test: IDO cell-based assay, kynurenine production in IFN-γ stimulated A431 cells; details: A-431, 24 h; final concentration of the compound 10 μM; rate relative to culture without compound
T1 construct: endogenous in cells; host or cells: A431 cells, IFN-γ stimulated
In short: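 Kynurenine output was read by absorbance at 460 nm after p-dimethylbenzaldehyde/trichloroacetic acid reagent, background-corrected, and given as % of untreated wells. Before the read, cells in 178 μM L-tryptophan medium had 1 h compound preincubation, then 24 h IFN-γ stimulation (added as 100 ng/mL dilution).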

TDO in A172 cells = target: T2, TDO in A172 cells (Homo sapiens, UniProt P48775); test: TDO cell-based assay, kynurenine production in A172 cells; details: A 172; final concentration of the compound 10 μM; rate relative to culture without compound
T2 construct: endogenous in cells; host or cells: A172 cells
In short: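 A172 cells were preincubated with compound for 1 h, then given L-tryptophan (final 524 μM) for 24 h at 37 °C. Kynurenine was read at 460 nm after p-dimethylbenzaldehyde/TCA reagent, background-subtracted, and expressed as % of no-compound production.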

[1] = target: rhTDO (recombinant human TDO) (Homo sapiens, UniProt P48775); test: Enzyme assay using rhTDO (rate of kynurenine production); assay type: biochemical; details: 2 h, read-out: rhTDO-mediated kynurenine production; for remaining activity at 10 µM: final concentration of the compound 10 μM, rate relative to reaction without compound
In short: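 Kynurenine output, as percent of untreated control after background subtraction, read at 490 nm with p-dimethylbenzaldehyde following TCA quench and 15 min heating at 50 °C. Reaction: rhTDO with compound, 10 min preincubation then 120 min at 37 °C, started by 20 mM tryptophan stock, in phosphate/ascorbate/methylene blue/catalase.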

[2] = target: rhIDO (recombinant human IDO) (Homo sapiens, UniProt P14902); test: Enzyme assay using rhIDO (rate of kynurenine production); assay type: biochemical; details: 2 h, read-out: rhIDO-mediated kynurenine production; for remaining activity at 10 µM: final concentration of the compound 10 μM, rate relative to reaction without compound
In short: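 Kynurenine formation, expressed as % of uncompounded reaction after background subtraction, was read by absorbance at 490 nm following TCA stop, 50 °C hydrolysis and Ehrlich-type p-dimethylbenzaldehyde staining. Recombinant human IDO with ascorbate/methylene blue/catalase was pre-exposed to compound 10 min, then reacted 120 min at 37 °C after adding 2 mM tryptophan stock.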

[3] = final concentration of the compound 3 μM (data with *)

T2 sequence (P48775 whole entry): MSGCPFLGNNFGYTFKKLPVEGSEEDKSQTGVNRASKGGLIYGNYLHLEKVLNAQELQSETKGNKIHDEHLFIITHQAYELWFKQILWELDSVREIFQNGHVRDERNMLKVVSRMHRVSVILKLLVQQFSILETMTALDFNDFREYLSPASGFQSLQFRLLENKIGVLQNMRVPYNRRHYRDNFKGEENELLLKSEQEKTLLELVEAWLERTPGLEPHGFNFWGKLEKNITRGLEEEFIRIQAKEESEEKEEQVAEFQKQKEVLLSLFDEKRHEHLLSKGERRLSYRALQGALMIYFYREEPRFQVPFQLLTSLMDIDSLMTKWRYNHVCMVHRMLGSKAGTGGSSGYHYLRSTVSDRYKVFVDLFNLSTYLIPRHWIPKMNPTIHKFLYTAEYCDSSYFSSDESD
Chain of rhTDO (recombinant human TDO) (P48775 whole entry): as above
Chain of rhIDO (recombinant human IDO) (P14902 whole entry): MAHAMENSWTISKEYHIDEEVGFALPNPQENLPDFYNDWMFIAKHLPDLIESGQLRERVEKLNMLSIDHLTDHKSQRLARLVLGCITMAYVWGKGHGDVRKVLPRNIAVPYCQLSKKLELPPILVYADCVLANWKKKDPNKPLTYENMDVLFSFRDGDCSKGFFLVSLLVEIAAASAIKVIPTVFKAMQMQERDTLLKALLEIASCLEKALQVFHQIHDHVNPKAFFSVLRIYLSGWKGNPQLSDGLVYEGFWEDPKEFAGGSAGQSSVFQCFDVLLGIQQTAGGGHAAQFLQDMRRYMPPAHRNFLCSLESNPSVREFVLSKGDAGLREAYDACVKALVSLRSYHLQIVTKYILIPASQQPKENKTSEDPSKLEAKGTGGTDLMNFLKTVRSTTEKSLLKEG
T1 sequence (P14902 whole entry): as above

SMILES | remaining activity at 10 µM (IDO in A431 cells) | remaining activity at 10 µM (TDO in A172 cells) | remaining activity at 10 µM [1] | remaining activity at 10 µM [2] | remaining activity at 3 µM [1, 3] | remaining activity at 3 µM [2, 3]
Clc1ccccc1CCN1CN=C(SCc2ccc(Br)cc2CSC2=NCN(CCc3ccccc3Cl)CN2)NC1 [Compound 53, 6,6′-(((4-Bromo-1,2-phenylene)bis(methylene))bis(sulfanediyl))bis(3-(2-chlorophenethyl)-1,2,3,4-tetrahydro-1,3,5-triazine)] | 5% | 17% | 19% | 16% |  | 
Clc1ccc(CN2CN=C(SCc3ccc(Br)cc3CSC3=NCN(Cc4ccc(Cl)c(Cl)c4)CN3)NC2)cc1Cl [Compound 54, 6,6′-(((4-Bromo-1,2-phenylene)bis(methylene))bis(sulfanediyl))bis(3-(3,4-dichlorobenzyl)-1,2,3,4-tetrahydro-1,3,5-triazine)] | 4% | 6% | 14% | 13% |  | 
COC(=O)c1ccccc1CSC(=N)N [Compound 55, Methyl 2-((carbamimidoylthio)methyl)benzoate hydrochloride] | 73% | 121% | 111% | 91% |  | 
Clc1ccc(CN2CN=C(SCc3cc(Cl)c(Cl)cc3CSC3=NCN(Cc4ccc(Cl)c(Cl)c4)CN3)NC2)cc1Cl [Compound 56, 6,6′-(((4,5-Dichloro-1,2-phenylene)bis(methylene))bis(sulfanediyl))bis(3-(3,4-dichlorobenzyl)-1,2,3,4-tetrahydro-1,3,5-triazine)] | 4% | 2% | 35% | 41% |  | 
Brc1ccc(CS/C(=N/C2CCCCC2)NC2CCCCC2)c(CS/C(=N/C2CCCCC2)NC2CCCCC2)c1 [Compound 57, (4-Bromo-1,2-phenylene)bis(methylene) (E,E)-bis(N,N′-dicyclohexylcarbamimidothioate) dihydrobromide] | 3% | 12% | 80% | 83% |  | 
c1ccc(CS/C(=N/C2CCCCC2)NC2CCCCC2)c(CS/C(=N/C2CCCCC2)NC2CCCCC2)c1 [Compound 58, 1,2-Phenylenebis(methylene) (E,E)-bis(N,N′-dicyclohexylcarbamimidothioate) dihydrobromide] | 1% | 9% | 83% | 73% |  | 
NC(=O)SCc1ccccc1CS/C(N)=N/c1ccc(F)c(Cl)c1 [Compound 59, (E)-S-(2-(((N′-(3-Chloro-4-fluorophenyl)carbamimidoyl)thio)methyl)benzyl) carbamothioate hydrobromide] | 1% | 4% | 1% | -3% |  | 
Brc1ccc(CSC2=NCN(CCC3CCCCC3)CN2)c(CSC2=NCN(CCC3CCCCC3)CN2)c1 [Compound 60, 6,6′-(((4-Bromo-1,2-phenylene)bis(methylene))bis(sulfanediyl))bis(3-(2-cyclohexylethyl)-1,2,3,4-tetrahydro-1,3,5-triazine)] | 1% | 4% | 6% | 6% |  | 
Clc1cc(CSC2=NCN(CCC3CCCCC3)CN2)c(CSC2=NCN(CCC3CCCCC3)CN2)cc1Cl [Compound 61, 6,6′-(((4,5-Dichloro-1,2-phenylene)bis(methylene))bis(sulfanediyl))bis(3-(2-cyclohexylethyl)-1,2,3,4-tetrahydro-1,3,5-triazine)] | 1% | -11% | 4% | 7% |  | 
CNC(=O)Cc1ccccc1CSC(=N)N [Compound 62, 2-(2-(Methylamino)-2-oxoethyl)benzyl carbamimidothioate hydrobromide] | 86% | 56% | 21% | 58% |  | 
N/C(=N\c1ccc(F)cc1F)SCc1cc(Cl)c(Cl)cc1CS/C(N)=N/c1ccc(F)cc1F [Compound 63, (4,5-Dichloro-1,2-phenylene)bis(methylene) (E,E)-bis(N′-(2,4-difluorophenyl)carbamimidothioate) dihydrobromide] | 2% | 5% |  | 0% | 16% | 
N=C(N)SCc1ccccc1CC(=O)NCCc1ccccc1 [Compound 64, 2-(2-Oxo-2-(phenethylamino)ethyl)benzyl carbamimidothioate hydrobromide] | 102% | 76% | 42% | 81% |  | 
N=C(N)SCc1ccccc1CC(=O)NCC1CCCCC1 [Compound 65, 2-(2-((Cyclohexylmethyl)amino)-2-oxoethyl)benzyl carbamimidothioate hydrobromide] | 104% | 94% | 76% | 89% |  | 
N=C(N)SCc1ccccc1CC(=O)NCCc1ccccc1Cl [Compound 66, 2-(2-((2-chlorophenethyl)amino)-2-oxoethyl)benzyl carbamimidothioate hydrobromide] | 101% | 74% | 49% | 80% |  | 
N#Cc1ccc(CNC(=O)Cc2ccccc2CSC(=N)N)cc1 [Compound 67, 2-(2-((4-Cyanobenzyl)amino)-2-oxoethyl)benzyl carbamimidothioate hydrobromide] | 36% | 64% | 46% | 39% |  | 
N=C(N)SCc1ccccc1CC(=O)NCCc1ccc(Cl)cc1 [Compound 68, 2-(2-((4-Chlorophenethyl)amino)-2-oxoethyl)benzyl carbamimidothioate hydrobromide] | 101% | 81% | 31% | 82% |  | 
N=C(N)SCc1ccccc1CC(=O)NCCC1CCCCC1 [Compound 69, 2-(2-((2-Cyclohexylethyl)amino)-2-oxoethyl)benzyl carbamimidothioate hydrobromide] | 101% | 73% | 60% | 76% |  | 
N=C(N)SCc1ccccc1CC(=O)NCCc1ccc(Cl)c(Cl)c1 [Compound 70, 2-(2-((3,4-Dichlorophenethyl)amino)-2-oxoethyl)benzyl carbamimidothioate hydrobromide] | 98% | 96% | 35% | 72% |  | 
N=C(N)SCc1ccccc1CC(=O)NCC1CC1 [Compound 71, 2-(2-((Cyclopropylmethyl)amino)-2-oxoethyl)benzyl carbamimidothioate hydrobromide] | 96% | 77% | 67% | 87% |  | 
N=C(N)SCc1ccccc1CC(=O)NCCCCc1ccccc1 [Compound 72, 2-(2-Oxo-2-((4-phenylbutyl)amino)ethyl)benzyl carbamimidothioate hydrobromide] | 69% | 68% | 47% | 70% |  | 
Clc1cc(CSC2=NCN(CC3CC3)CN2)c(CSC2=NCN(CC3CC3)CN2)cc1Cl [Compound 73, 6,6′-(((4,5-Dichloro-1,2-phenylene)bis(methylene))bis(sulfanediyl))bis(3-(cyclopropylmethyl)-1,2,3,4-tetrahydro-1,3,5-triazine)] | 4% | -3% | 4% |  |  | 29%
N=C(N)SCc1cc(Br)ccc1C(=O)NCC1CCCCC1 [Compound 74, 5-Bromo-2-((cyclohexylmethyl)carbamoyl)benzyl carbamimidothioate hydrobromide] | 75% | 47% | 29% | 70% |  | 
Brc1ccc(CSC2=NCN(CC3CC3)CN2)c(CSC2=NCN(CC3CC3)CN2)c1 [Compound 75, 6,6′-(((4-Bromo-1,2-phenylene)bis(methylene))bis(sulfanediyl))bis(3-(cyclopropylmethyl)-1,2,3,4-tetrahydro-1,3,5-triazine)] | 9% | 3% | 15% | 35% |  | 
